From paper PMC6697681, “The predominance of nucleotidyl activation in bacterial phosphonate biosynthesis” (Nature Communications, 2019)

How the values were obtained:
Tde-PntC (Tde1415) [1] = target: T1, Tde-PntC (Tde1415) (Treponema denticola, UniProt Q73MU2); assay: X-ray crystal structure, […] Å; assay type: binding; settings: PntC active site, two Mg2+; crystallised with 5 mM CTP and 5 mM AEP
T1 construct: full two-domain protein (N-terminal PntC, C-terminal AEPT), C-terminal His tag, pET21b (pGH3000), E. coli BL21(DE3); ~70 kDa monomer, dimer ~146 kDa by DLS
T1 sequence (Q73MU2 whole entry): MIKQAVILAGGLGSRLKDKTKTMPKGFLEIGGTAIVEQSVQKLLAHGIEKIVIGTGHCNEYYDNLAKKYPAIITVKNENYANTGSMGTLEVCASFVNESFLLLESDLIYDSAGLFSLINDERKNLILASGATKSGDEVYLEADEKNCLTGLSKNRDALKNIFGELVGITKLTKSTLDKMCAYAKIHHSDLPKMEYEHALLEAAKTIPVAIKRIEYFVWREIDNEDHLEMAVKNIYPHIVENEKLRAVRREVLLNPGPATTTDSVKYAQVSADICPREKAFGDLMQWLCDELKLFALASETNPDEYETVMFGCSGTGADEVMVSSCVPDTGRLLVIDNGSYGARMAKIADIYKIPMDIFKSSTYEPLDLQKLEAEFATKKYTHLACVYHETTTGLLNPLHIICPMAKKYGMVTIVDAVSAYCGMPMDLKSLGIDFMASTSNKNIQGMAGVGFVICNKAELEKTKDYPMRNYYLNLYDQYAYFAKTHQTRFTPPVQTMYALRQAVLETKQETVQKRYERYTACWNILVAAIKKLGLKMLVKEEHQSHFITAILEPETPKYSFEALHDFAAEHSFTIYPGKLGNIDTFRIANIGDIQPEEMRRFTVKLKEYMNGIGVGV

Spn-LicC = target: T2, Spn-LicC (Streptococcus pneumoniae, UniProt Q8DPI6); assay: coupled pyrophosphate release assay (EnzChek, MESG/PNP), initial rates; assay type: biochemical; settings: substrate inhibition constant; saturating CTP (4 mM), 7 mM MgCl2, room temperature
T2 construct: monomer by DLS
T2 sequence (Q8DPI6 whole entry): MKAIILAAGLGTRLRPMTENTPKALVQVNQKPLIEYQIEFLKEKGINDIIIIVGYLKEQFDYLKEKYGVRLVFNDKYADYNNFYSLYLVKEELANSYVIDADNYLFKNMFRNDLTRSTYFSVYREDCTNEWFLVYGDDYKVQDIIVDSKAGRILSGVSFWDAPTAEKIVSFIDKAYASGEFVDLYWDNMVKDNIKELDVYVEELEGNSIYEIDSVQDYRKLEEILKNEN
Excerpt: coupled pyrophosphate release assay (EnzChek, MESG/PNP), initial rates on Spn-LicC

Ari-PntC (Ari1348) = target: T3, Ari-PntC (Ari1348) (Lancefieldella rimae, UniProt B9CM12); assay: as above; assay type: biochemical; settings: substrate inhibition constant; saturating CTP (4 mM), 7 mM MgCl2, room temperature
T3 construct: codon-optimized gene in pET29 (pGH2000), C-terminal His6 tag, E. coli BL21(DE3), Ni-NTA and anion exchange; monomer by DLS
T3 sequence (B9CM12 whole entry): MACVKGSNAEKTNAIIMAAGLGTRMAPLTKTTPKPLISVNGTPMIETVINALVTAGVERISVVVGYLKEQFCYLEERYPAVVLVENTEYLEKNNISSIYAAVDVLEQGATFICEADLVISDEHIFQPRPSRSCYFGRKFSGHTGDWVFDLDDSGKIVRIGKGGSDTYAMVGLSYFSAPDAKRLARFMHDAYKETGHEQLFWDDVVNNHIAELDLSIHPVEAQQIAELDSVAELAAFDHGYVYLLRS
Excerpt: coupled pyrophosphate release assay (EnzChek, MESG/PNP), initial rates on Ari-PntC (Ari1348)

Tde-PntC (Tde1415) [2] = target: T1, Tde-PntC (Tde1415); assay: X-ray crystal structure; assay type: binding; settings: AEPT domain, non-covalently bound PLP

## NCCP(=O)(O)OP(=O)(O)OC[C@H]1O[C@@H](n2ccc(N)nc2=O)[C@H](O)[C@@H]1O [CMP-AEP]
Tde-PntC (Tde1415) [1]
  X-ray crystal structure, 1.95 Å: Tde1415 and Tde1415:CMP-AEP have been deposited in the Protein Data Bank

## C[N+](C)(C)CCOP(=O)([O-])O [P-Cho]
Spn-LicC
  KS: 6.4 ± 0.9 mM
Ari-PntC (Ari1348)
  KS: 4 ± 1 mM

## Cc1ncc(COP(=O)(O)O)c(C=O)c1O [PLP]
Tde-PntC (Tde1415) [2]
  X-ray crystal structure: The AEPT domain of Tde1415 possesses PLP and the requisite active site features
